Results: ChEMBL document CHEMBL1147155, “1,4-Dihydroindeno[1,2-c]pyrazoles with acetylenic side chains as novel and potent multitargeted receptor tyrosine kinase inhibitors with low affinity for the hERG ion channel” (J Med Chem, 2007)

Experiments:
Format in all cases: ADME, organism-based
[1] = Bioavailability in CD1 mouse at 10 mg/kg, po; conditions: in vivo
[2] = Clearance in CD1 mouse at 3 mg/kg, iv; design: dose 3 mg/kg, route intravenous; conditions: in vivo
[3] = Half life in CD1 mouse at 3 mg/kg, iv; design: dose 3 mg/kg, route intravenous; conditions: in vivo
[4] = AUC in CD1 mouse at 10 mg/kg, po; design: dose 10 mg/kg, route oral; conditions: plasma

| bioavailability [1] | clearance [2] | half-life [3] | AUC [4] | SMILES |
| --- | --- | --- | --- | --- |
| – | 41.7 mL/min/kg | 3 h | – | C(#Cc1cc(-c2n[nH]c3c2Cc2cc(Cn4cncn4)ccc2-3)cs1)COc1ccccc1 |
| 22% | 56.7 mL/min/kg | 0.3 h | – | COCCOCC#Cc1cc(-c2n[nH]c3c2Cc2cc(Cn4cncn4)ccc2-3)cs1 |

Second part, the compound before the results:

| SMILES | bioavailability [1] | clearance [2] | half-life [3] | AUC [4] |
| --- | --- | --- | --- | --- |
| CN1CCN(Cc2ccc3c(c2)Cc2c-3n[nH]c2-c2csc(C#CCNC(=O)Nc3ccccc3)c2)CC1 | 0% | – | – | – |
| CN1CCN(Cc2ccc3c(c2)Cc2c(-c4csc(C#CCNC(=O)c5ccccc5)c4)n[nH]c2-3)CC1 | 17% | – | – | 3500 ng·h/mL |
| CN1CCN(Cc2ccc3c(c2)Cc2c-3n[nH]c2-c2csc(C#CCOc3ccccc3)c2)CC1 | 75% | – | 5.5 h | – |
